Data published in patent EP4001279A1, “NOVEL SPIROPYRROLIDINE DERIVED ANTIVIRAL AGENTS” (Enanta Pharmaceuticals, Inc., priority 2020, dated 2022).
Like-named read-outs stand apart in the source and are kept apart here.

Columns and labels:
SARS-CoV-2 3CL-protease = SARS-CoV-2 3CL-protease (Severe acute respiratory syndrome coronavirus 2, UniProt P0DTD1); experiment: SARS-CoV-2 3C-like (3CL) protease fluorescence assay (FRET); format: biochemical; details: read-out: FRET IC50
[1] = system: 229E human corona virus (hCoV); experiment: 229E live virus assay (CPE, ATPlite readout in MRC-5 cells); format: cell-based, hCoV-229E; details: MOI 0.05, ATPlite readout, run in duplicate
[2] = Human coronavirus 229E, MRC5, hCoV-229E live virus
[3] = SARS-CoV-2 3CL-protease 10 nM, 30 min preincubation at RT, substrate 40 µM, test compounds 0 - 10 µM, duplicate

SMILES	IC50 (SARS-CoV-2 3CL-protease) [nM]	EC50 [1, 2] [nM]	IC50 (SARS-CoV-2 3CL-protease; [3]) [nM]	EC50 ([1]; hCoV-229E live virus) [nM]
COc1cccc2[nH]c(C(=O)N[C@@H](COC(C)(C)C)C(=O)N3C[C@]4(C[C@H]3C#N)C(=O)Nc3ccccc34)cc12 [Example 124]	< 100	< 100		
CC(C)(C)OC[C@H](NC(=O)c1cc2c(F)cc(F)cc2[nH]1)C(=O)N1C[C@]2(C[C@H]1C#N)C(=O)Nc1ccccc12 [Example 125]	< 100	100 to 1000		
CC(C)(C)CC(NC(=O)c1cnn(-c2ccc(F)cc2)c1)C(=O)N1CC2(CC1C#N)C(=O)Nc1ccccc12 (stereo not drawn) [Example 146]	< 100	< 100		
CC(C)C[C@H](NC(=O)c1cc2c(F)cc(F)c(F)c2[nH]1)C(=O)N1C[C@]2(C[C@H]1C#N)C(=O)Nc1ccccc12 [Example 152]			< 100	
CC(C)C[C@@H](C(=O)N1C[C@]2(C[C@H]1C(=O)C(=O)NC1CCCCC1)C(=O)Nc1ccccc12)N(C)C(=O)c1cc2c(F)cc(F)c(F)c2[nH]1 [Example 156]	> 1000	> 1000		
CC(C)C[C@@H](C(=O)N1C[C@]2(C[C@H]1C#N)C(=O)Nc1ccccc12)N(C)C(=O)c1ccccc1OC(F)F [Example 176]	< 100	< 100		
CC(C)C[C@@H](C(=O)N1C[C@]2(C[C@H]1C#N)C(=O)Nc1ccccc12)N(C)C(=O)c1cc2cc(Br)ccc2cn1 [Example 230]	100 to 1000	< 100		
COc1cc(C(=O)N(C)[C@@H](CC(C)C)C(=O)N2C[C@]3(C[C@H]2C#N)C(=O)Nc2ccccc23)cn2cc(C(F)F)nc12 [Example 255]	< 100	< 100		
CC(C)C[C@@H](C(=O)N1C[C@]2(C[C@H]1C#N)C(=O)Nc1ccccc12)N(C)C(=O)[C@@H]1C[C@H]1c1ccccc1 [Example 280]	< 100	< 100		
CC(C)CC(C(=O)N1CC2(CC1C#N)C(=O)Nc1ccccc12)N(C)C(=O)C1CC1c1ccccc1 (stereo not drawn) [Example 281]	< 100			< 100
CC(C)CC(C(=O)N1CC2(CC1C#N)C(=O)Nc1ccccc12)N(C)C(=O)c1nnn(-c2ccccc2)n1 (stereo not drawn) [Example 287]	< 100	< 100		
CC(C)CC(C(=O)N1CC2(CC1C#N)C(=O)Nc1ccccc12)N(C)C(=O)c1nccc2ccccc12 (stereo not drawn) [Example 300]			100 to 1000	
CC(C)CC(C(=O)N1CC2(CC1C#N)C(=O)Nc1ccccc12)N(C)C(=O)c1cc(OC2CC2)c2nn(C3CC3)cc2c1 (stereo not drawn) [Example 307]	100 to 1000	100 to 1000		
COc1cc(C(=O)N(C)C(CC(C)C)C(=O)N2CC3(CC2C#N)C(=O)Nc2ccccc23)cc2cn(C3CC3)nc12 (stereo not drawn) [Example 308]	< 100	100 to 1000		
CC(C)CC(C(=O)N1CC2(CC1C#N)C(=O)Nc1ccccc12)N(C)C(=O)c1cnc2ccc(F)cc2c1 (stereo not drawn) [Example 337]			< 100	
CC(C)C[C@@H](C(=O)N1C[C@]2(C[C@H]1C#N)C(=O)Nc1ccccc12)N(C)C(=O)[C@H]1CCN(C(=O)C(F)(F)F)C1 [Example 346]	< 100	< 100		

SMILES	IC50 (SARS-CoV-2 3CL-protease) [nM]	EC50 [1, 2] [nM]	IC50 (SARS-CoV-2 3CL-protease; [3]) [nM]	EC50 ([1]; hCoV-229E live virus) [nM]
CC(C)CC(C(=O)N1CC2(CC1C#N)C(=O)Nc1ccccc12)N(C)C(=O)C1CCN(C(=O)C(F)(F)F)C1 (stereo not drawn) [Example 347]	< 100			< 100
COC[C@@H](C(=O)N1C[C@]2(C[C@H]1C#N)C(=O)Nc1ccccc12)N(C)C(=O)c1cc2c(F)cc(F)cc2[nH]1 [Example 369]			< 100	
CN(C(=O)c1cc2c(F)cc(F)cc2[nH]1)[C@@H](Cc1ccc(O)cc1)C(=O)N1C[C@]2(C[C@H]1C#N)C(=O)Nc1ccccc12 [Example 388]			< 100	
[2H]C([2H])([2H])N(C(=O)c1cnn(CC(F)(F)F)c1)[C@@H](CCCC)C(=O)N1C[C@]2(C[C@H]1C#N)C(=O)Nc1ccccc12 [Example 394]			< 100	
CN(C(=O)c1cnn(C(C)(C)C)c1)[C@@H](CC1CC1)C(=O)N1C[C@]2(C[C@H]1C#N)C(=O)Nc1ccccc12 [Example 404]			< 100	
CN(C(=O)[C@@H](O)C(C)(C)C)[C@@H](CC1CC1)C(=O)N1C[C@]2(C[C@H]1C#N)C(=O)Nc1ccccc12 [Example 416]	< 100	< 100		
[2H]C([2H])([2H])N(C(=O)C(O)c1ccc(F)cc1)C(CCCC)C(=O)N1CC2(CC1C#N)C(=O)Nc1ccccc12 (stereo not drawn) [Example 420]			< 100	
[2H]C([2H])([2H])N(C(=O)C(O)c1ccc(F)cc1)C(CCCC)C(=O)N1CC2(CC1C#N)C(=O)Nc1ccccc12 (stereo not drawn) [Example 421]			< 100	
C[C@H](OC(=O)N[C@@H](CC(C)(C)C)C(=O)N1C[C@]2(C[C@H]1C#N)C(=O)Nc1ccc(Cl)cc12)c1ccc(F)cc1 [Example 494]	< 100	100 to 1000		
CC(C)C[C@@H](C(=O)N1C[C@]2(C[C@H]1C#N)C(=O)Nc1ccc(S(C)(=O)=O)cc12)N(C)C(=O)c1cc2c(F)cc(F)cc2[nH]1 [Example 500, N-((S)-1-((3R,5'S)-5'-cyano-5-(methylsulfonyl)-2-oxospiro[indoline-3,3'-pyrrolidin]-1'-yl)-4-methyl-1-oxopentan-2-yl)-4,6-difluoro-N-methyl-1H-indole-2-carboxamide]		< 100		
COC(=O)c1ccc2c(c1)[C@@]1(C[C@@H](C#N)N(C(=O)[C@H](CC(C)C)N(C)C(=O)c3cc4c(F)cc(F)cc4[nH]3)C1)C(=O)N2 [Example 501, methyl (3R,5'S)-5'-cyano-1'-(N-(4,6-difluoro-1H-indole-2-carbonyl)-N-methyl-L-leucyl)-2-oxospiro[indoline-3,3'-pyrrolidine]-5-carboxylate]		< 100		
CC(C)C[C@@H](C(=O)N1C[C@]2(C[C@H]1C#N)C(=O)Nc1ccc(C(=O)N3CCOCC3)cc12)N(C)C(=O)c1cc2c(F)cc(F)cc2[nH]1 [Example 502, N-((S)-1-((3R,5'S)-5'-cyano-5-(morpholine-4-carbonyl)-2-oxospiro[indoline-3,3'-pyrrolidin]-1'-yl)-4-methyl-1-oxopentan-2-yl)-4,6-difluoro-N-methyl-1H-indole-2-carboxamide]		< 100		
CC(C)C[C@@H](C(=O)N1C[C@]2(C[C@H]1C#N)C(=O)Nc1ccc(N=[N+]=[N-])cc12)N(C)C(=O)c1cc2c(F)cc(F)cc2[nH]1 [Example 503, N-((S)-1-((3R,5'S)-5-azido-5'-cyano-2-oxospiro[indoline-3,3'-pyrrolidin]-1'-yl)-4-methyl-1-oxopentan-2-yl)-4,6-difluoro-N-methyl-1H-indole-2-carboxamide]		< 100		
CC(C)C[C@@H](C(=O)N1C[C@]2(C[C@H]1C#N)C(=O)Nc1ccc(NC(=O)C3(F)CC3)cc12)N(C)C(=O)c1cc2c(F)cc(F)cc2[nH]1 [Example 504, N-((S)-1-((3R,5'S)-5'-cyano-5-(1-fluorocyclopropane-1-carboxamido)-2-oxospiro[indoline-3,3'-pyrrolidin]-1'-yl)-4-methyl-1-oxopentan-2-yl)-4,6-difluoro-N-methyl-1H-indole-2-carboxamide]		< 100		
CC(C)C[C@@H](C(=O)N1C[C@]2(C[C@H]1C#N)C(=O)Nc1ccc(-n3cc(C4CC4)nn3)cc12)N(C)C(=O)c1cc2c(F)cc(F)cc2[nH]1 [Example 505, N-((S)-1-((3R,5'S)-5'-cyano-5-(4-cyclopropyl-1H-1,2,3-triazol-1-yl)-2-oxospiro[indoline-3,3'-pyrrolidin]-1'-yl)-4-methyl-1-oxopentan-2-yl)-4,6-difluoro-N-methyl-1H-indole-2-carboxamide]		< 100		
C[C@@H](OC(=O)N[C@@H](CC(C)(C)C)C(=O)N1C[C@]2(C[C@H]1C#N)C(=O)Nc1ccc(F)cc12)c1ccc(F)cc1 [Example 523]			< 100	
